{"source": "patent US20170190671A1", "about": "“BIS(ARYL)CATECHOL DERIVATIVES AS HERBICIDES” (E I DU PONT DE NEMOURS AND COMPANY, priority 2014, published 2017)", "experiment_in_all_cases": "Test C postemergence", "format_in_all_cases": "in vivo", "key": {"[1]": {"test_system": "pigweed (Amaranthus retroflexus)", "conditions": "Amaranthus retroflexus, post-emergence, 336 h, Postemergence, scale 0 to 100, read-out: Plant response rating, Pigweed", "outline": "(§1)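 Seeds sown in a loam soil and sand blend were treated preemergence; plants in peat-moss/vermiculite medium were sprayed at the 1- to 4-leaf stage (2-18 cm). Chemicals were in a non-phytotoxic surfactant-containing solvent. After 13 to 15 days in a greenhouse, injury was visually rated against controls on a 0-100 scale.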"}, "[2]": {"test_system": "ragweed (common ragweed, Ambrosia elatior)", "conditions": "Ambrosia artemisiifolia, post-emergence, 336 h, Postemergence, scale 0 to 100, read-out: Plant response rating, Ragweed", "outline": "as §1"}, "corn (Zea mays)": {"test_system": "corn (Zea mays)", "conditions": "Zea mays, post-emergence, 336 h, Postemergence, scale 0 to 100", "outline": "as §1"}, "[3]": {"test_system": "oilseed rape (Brassica napus)", "conditions": "Brassica napus, post-emergence, Postemergence, scale 0 to 100, read-out: Plant response rating, Oilseed Rape", "outline": "as §1"}, "soybean (Glycine max)": {"test_system": "soybean (Glycine max)", "conditions": "Glycine max, post-emergence, Postemergence, scale 0 to 100, read-out: Plant response rating, Soybean", "outline": "as §1"}, "[4]": {"test_system": "blackgrass (Alopecurus myosuroides)", "conditions": "Alopecurus myosuroides, post-emergence, 336 h, Postemergence, scale 0 to 100, read-out: Plant response rating, Blackgrass", "outline": "as §1"}, "[5]": {"test_system": "johnsongrass (Sorghum halepense)", "conditions": "Sorghum halepense, post-emergence, 336 h, Postemergence, scale 0 to 100, read-out: Plant response rating, Johnsongrass", "outline": "as §1"}, "[6]": {"test_system": "lambsquarters (Chenopodium album)", "conditions": "Chenopodium album, post-emergence, 336 h, Postemergence, scale 0 to 100, read-out: Plant response rating, Lambsquarters", "outline": "as §1"}, "[7]": {"test_system": "yellow nutsedge (Cyperus esculentus)", "conditions": "Cyperus, post-emergence, 336 h, Postemergence, scale 0 to 100, read-out: Plant response rating, Nutsedge, Yellow", "outline": "as §1"}, "[8]": {"test_system": "barnyardgrass (Echinochloa crus-galli)", "conditions": "Echinochloa crus-galli, post-emergence, Postemergence, scale 0 to 100, read-out: Plant response rating, Barnyardgrass", "outline": "as §1"}, "wild oat (Avena fatua)": {"test_system": "wild oat (Avena fatua)", "conditions": "Avena fatua, post-emergence, Postemergence, scale 0 to 100, read-out: Plant response rating, Oat, Wild", "outline": "as §1"}, "[9]": {"test_system": "Italian ryegrass (Lolium multiflorum)", "conditions": "Lolium multiflorum, post-emergence, 336 h, Postemergence, scale 0 to 100, read-out: Plant response rating, Ryegrass, Italian", "outline": "as §1"}, "[10]": {"test_system": "chickweed (common chickweed, Stellaria media)", "conditions": "Stellaria media, post-emergence, Postemergence, scale 0 to 100, read-out: Plant response rating, Chickweed", "outline": "as §1"}, "[11]": {"test_system": "giant foxtail (Setaria faberii)", "conditions": "Setaria faberi, post-emergence, 336 h, Postemergence, scale 0 to 100, read-out: Plant response rating, Foxtail, Giant", "outline": "as §1"}, "[12]": {"test_system": "waterhemp (common waterhemp, Amaranthus rudis)", "conditions": "Amaranthus tuberculatus, post-emergence, Postemergence, scale 0 to 100, read-out: Plant response rating, Waterhemp", "outline": "as §1"}}}
{"smiles": "Fc1cnc(Oc2c(F)cccc2Oc2ncc(Cl)cn2)nc1", "note": "[Compound 23]", "values": [{"measurement": "pest or weed control at 31 g/ha", "setting": "[1]; 31 g ai/ha", "value": 70, "unit": "%"}, {"measurement": "pest or weed control at 62 g/ha", "setting": "[1]; 62 g ai/ha", "value": 80, "unit": "%"}, {"measurement": "pest or weed control at 125 g/ha", "setting": "[1]; 125 g ai/ha", "value": 95, "unit": "%"}, {"measurement": "pest or weed control at 250 g/ha", "setting": "[1]; 250 g ai/ha", "value": 100, "unit": "%"}, {"measurement": "pest or weed control at 31 g/ha", "setting": "[2]; 31 g ai/ha", "value": 60, "unit": "%"}, {"measurement": "pest or weed control at 62 g/ha", "setting": "[2]; 62 g ai/ha", "value": 70, "unit": "%"}, {"measurement": "pest or weed control at 125 g/ha", "setting": "[2]; 125 g ai/ha", "value": 75, "unit": "%"}, {"measurement": "pest or weed control at 250 g/ha", "setting": "[2]; 250 g ai/ha", "value": 100, "unit": "%"}, {"measurement": "Corn plant response rating (crop injury, 0 = no effect, 100 = complete kill) at 31 g/ha", "setting": "corn (Zea mays); 31 g ai/ha", "value": 5, "unit": "%"}, {"measurement": "Corn plant response rating (crop injury, 0 = no effect, 100 = complete kill) at 62 g/ha", "setting": "corn (Zea mays); 62 g ai/ha", "value": 5, "unit": "%"}, {"measurement": "Corn plant response rating (crop injury, 0 = no effect, 100 = complete kill) at 125 g/ha", "setting": "corn (Zea mays); 125 g ai/ha", "value": 10, "unit": "%"}, {"measurement": "Corn plant response rating (crop injury, 0 = no effect, 100 = complete kill) at 250 g/ha", "setting": "corn (Zea mays); 250 g ai/ha", "value": 10, "unit": "%"}, {"measurement": "plant injury at 31 g/ha", "setting": "[3]; 31 g ai/ha", "value": 10, "unit": "%"}, {"measurement": "plant injury at 62 g/ha", "setting": "[3]; 62 g ai/ha", "value": 30, "unit": "%"}, {"measurement": "plant injury at 125 g/ha", "setting": "[3]; 125 g ai/ha", "value": 50, "unit": "%"}, {"measurement": "plant injury at 250 g/ha", "setting": "[3]; 250 g ai/ha", "value": 45, "unit": "%"}, {"measurement": "plant injury at 31 g/ha", "setting": "soybean (Glycine max); 31 g ai/ha", "value": 70, "unit": "%"}, {"measurement": "plant injury at 62 g/ha", "setting": "soybean (Glycine max); 62 g ai/ha", "value": 65, "unit": "%"}, {"measurement": "plant injury at 125 g/ha", "setting": "soybean (Glycine max); 125 g ai/ha", "value": 90, "unit": "%"}, {"measurement": "plant injury at 250 g/ha", "setting": "soybean (Glycine max); 250 g ai/ha", "value": 95, "unit": "%"}, {"measurement": "pest or weed control at 31 g/ha", "setting": "[4]; 31 g ai/ha", "value": 0, "unit": "%"}, {"measurement": "pest or weed control at 62 g/ha", "setting": "[4]; 62 g ai/ha", "value": 5, "unit": "%"}, {"measurement": "pest or weed control at 125 g/ha", "setting": "[4]; 125 g ai/ha", "value": 5, "unit": "%"}, {"measurement": "pest or weed control at 250 g/ha", "setting": "[4]; 250 g ai/ha", "value": 30, "unit": "%"}, {"measurement": "pest or weed control at 31 g/ha", "setting": "[5]; 31 g ai/ha", "value": 0, "unit": "%"}, {"measurement": "pest or weed control at 62 g/ha", "setting": "[5]; 62 g ai/ha", "value": 0, "unit": "%"}, {"measurement": "pest or weed control at 125 g/ha", "setting": "[5]; 125 g ai/ha", "value": 5, "unit": "%"}, {"measurement": "pest or weed control at 250 g/ha", "setting": "[5]; 250 g ai/ha", "value": 5, "unit": "%"}, {"measurement": "pest or weed control at 31 g/ha", "setting": "[6]; 31 g ai/ha", "value": 70, "unit": "%"}, {"measurement": "pest or weed control at 62 g/ha", "setting": "[6]; 62 g ai/ha", "value": 80, "unit": "%"}, {"measurement": "pest or weed control at 125 g/ha", "setting": "[6]; 125 g ai/ha", "value": 90, "unit": "%"}, {"measurement": "pest or weed control at 250 g/ha", "setting": "[6]; 250 g ai/ha", "value": 95, "unit": "%"}, {"measurement": "pest or weed control at 31 g/ha", "setting": "[7]; 31 g ai/ha", "value": 0, "unit": "%"}, {"measurement": "pest or weed control at 62 g/ha", "setting": "[7]; 62 g ai/ha", "value": 0, "unit": "%"}, {"measurement": "pest or weed control at 125 g/ha", "setting": "[7]; 125 g ai/ha", "value": 5, "unit": "%"}, {"measurement": "pest or weed control at 250 g/ha", "setting": "[7]; 250 g ai/ha", "value": 5, "unit": "%"}, {"measurement": "pest or weed control at 31 g/ha", "setting": "[8]; 31 g ai/ha", "value": 5, "unit": "%"}, {"measurement": "pest or weed control at 62 g/ha", "setting": "[8]; 62 g ai/ha", "value": 10, "unit": "%"}, {"measurement": "pest or weed control at 125 g/ha", "setting": "[8]; 125 g ai/ha", "value": 10, "unit": "%"}, {"measurement": "pest or weed control at 250 g/ha", "setting": "[8]; 250 g ai/ha", "value": 25, "unit": "%"}, {"measurement": "pest or weed control at 31 g/ha", "setting": "wild oat (Avena fatua); 31 g ai/ha", "value": 0, "unit": "%"}, {"measurement": "pest or weed control at 62 g/ha", "setting": "wild oat (Avena fatua); 62 g ai/ha", "value": 0, "unit": "%"}, {"measurement": "pest or weed control at 125 g/ha", "setting": "wild oat (Avena fatua); 125 g ai/ha", "value": 0, "unit": "%"}, {"measurement": "pest or weed control at 250 g/ha", "setting": "wild oat (Avena fatua); 250 g ai/ha", "value": 5, "unit": "%"}, {"measurement": "pest or weed control at 31 g/ha", "setting": "[9]; 31 g ai/ha", "value": 0, "unit": "%"}, {"measurement": "pest or weed control at 62 g/ha", "setting": "[9]; 62 g ai/ha", "value": 0, "unit": "%"}, {"measurement": "pest or weed control at 125 g/ha", "setting": "[9]; 125 g ai/ha", "value": 0, "unit": "%"}, {"measurement": "pest or weed control at 250 g/ha", "setting": "[9]; 250 g ai/ha", "value": 35, "unit": "%"}, {"measurement": "pest or weed control at 31 g/ha", "setting": "[10]; 31 g ai/ha", "value": 50, "unit": "%"}, {"measurement": "pest or weed control at 62 g/ha", "setting": "[10]; 62 g ai/ha", "value": 50, "unit": "%"}, {"measurement": "pest or weed control at 125 g/ha", "setting": "[10]; 125 g ai/ha", "value": 60, "unit": "%"}, {"measurement": "pest or weed control at 250 g/ha", "setting": "[10]; 250 g ai/ha", "value": 60, "unit": "%"}, {"measurement": "pest or weed control at 31 g/ha", "setting": "[11]; 31 g ai/ha", "value": 0, "unit": "%"}, {"measurement": "pest or weed control at 62 g/ha", "setting": "[11]; 62 g ai/ha", "value": 5, "unit": "%"}, {"measurement": "pest or weed control at 125 g/ha", "setting": "[11]; 125 g ai/ha", "value": 10, "unit": "%"}, {"measurement": "pest or weed control at 250 g/ha", "setting": "[11]; 250 g ai/ha", "value": 35, "unit": "%"}, {"measurement": "pest or weed control at 31 g/ha", "setting": "[12]; 31 g ai/ha", "value": 65, "unit": "%"}, {"measurement": "pest or weed control at 62 g/ha", "setting": "[12]; 62 g ai/ha", "value": 75, "unit": "%"}, {"measurement": "pest or weed control at 125 g/ha", "setting": "[12]; 125 g ai/ha", "value": 90, "unit": "%"}, {"measurement": "pest or weed control at 250 g/ha", "setting": "[12]; 250 g ai/ha", "value": 98, "unit": "%"}]}
